The values that follow come from ChEMBL document CHEMBL1212897 (J Med Chem, 2010).

As usually defined, the bioavailability is dose-corrected exposure relative to a reference, in per cent. Broadly, the half-life is the time in which the quantity being followed falls by half. The clearance is the volume of plasma or blood freed of the substance per unit of time.

The source made the active and inactive calls. No cut-off for these calls is given here.

Data set [1] has as its system Rattus norvegicus. The data set is described as follows: Protection against high salt-induced kidney injury in Dahl salt sensitive hypertensive rat assessed as decrease in urinary albumin level at 40 to 100 mg/kg, po relative to eplerenone. Format: functional. Further details: scale not given: the % may be the effect or the level left. Particulars: dose mg/kg 40-100.

Data set [2] is described as follows: Volume of distribution at steady state in Sprague-Dawley rat at 2 mg/kg, iv. In kind it is ADME, organism-based. Further details: dose 2 mg/kg, route intravenous. As to conditions: in vivo, read-out: Vdss.
Data set [3] can be described thus: Oral bioavailability in Sprague-Dawley rat at 2 mg/kg. Format: ADME, organism-based. Particulars: in vivo.
Data set [4] deals with Rattus norvegicus. Description: Protection against high salt-induced kidney injury in Dahl salt sensitive hypertensive rat assessed as decrease in urinary albumin level at 10 mg/kg, po relative to eplerenone. Further details: scale not given: the % may be the effect or the level left. In kind it is functional.
In data set [5] the test system is Rattus norvegicus. The data set is described as follows: Protection against high salt-induced kidney injury in Dahl salt sensitive hypertensive rat assessed as decrease in glomerulosclerosis at 10 mg/kg, po relative to eplerenone. In kind it is functional, organism-based. Further details: dose 10 mg/kg.
Data set [6] can be described thus: Half life in Sprague-Dawley rat at 2 mg/kg, iv. Format: ADME, organism-based. Details: dose 2 mg/kg, route intravenous. As to conditions: in vivo.
Data set [7] is described as follows: Clearance in Sprague-Dawley rat at 2 mg/kg, iv. Format: ADME, organism-based. Further details: dose 2 mg/kg, route intravenous. As to conditions: in vivo.
Data set [8] has as its system Rattus norvegicus. The data set is described as follows: Effect on renal function in rat assessed as reduction in serum potassium level at 10 mg/kg, po. Format: functional, organism-based. Further details: dose 10 mg/kg.
The subject of data set [9] is Rattus norvegicus. Description: Antihypertensive activity in Dahl salt sensitive hypertensive rat assessed as reduction in systolic blood pressure at 40 to 100 mg/kg, po bid for 21 days (RVb = 10 to 50 mmHg). Format: functional, Artery. Particulars: dose mg/kg 40-100.

Take `N#Cc1ccc(N2N=C3c4ccc(C(=O)O)cc4CC[C@@H]3[C@@H]2C2CCCC2)cc1Cl` [PF-03882845]: the results for the Activity in the data set with Rattus norvegicus [1], in the data set with Rattus norvegicus [4] and in the data set on Rattus norvegicus [9] were 50%, 18% and less than 5 mmHg, respectively. The Vd in [2] was determined as 1.4 L/kg. Further, in data set [3], the bioavailability was 86%. Further, the outcome in the data set with Rattus norvegicus [5] and in the data set on Rattus norvegicus [8] was Active. This compound also had a half-life in data set [6] of 1.7 h. For the same compound, in [7], the clearance was 9.8 mL/min/kg.
